Test results published in US20120208809A1, “9H-PYRROLO[2,3-B: 5,4-C'] DIPYRIDINE AZACARBOLINE DERIVATIVES, PREPARATION THEREOF, AND THERAPEUTIC USE THEREOF” (SANOFI, priority 2009, published 2012).

Legend:
Pim-1 = molecular target: T1, Pim-1 (Homo sapiens, UniProt P11309); assay: TR-FRET assay of Pim kinase activity (phosphorylation of Bad Ser112), Pim-1; format: biochemical; details: ATP 40 μM, read-out: IC50 Pim1
T1 construct: full-length human recombinant His6-labelled Pim-1, Pim-2 or Pim-3 protein; His6; made in house
Procedure, shortened: (§1)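 Full-length His6-tagged human Pim-1, -2 or -3 phosphorylate full-length His6-Bad at 40 μM ATP; phospho-Ser112 detected by TR-FRET (Eu anti-phosphoBad, APC anti-His6), 665/615 nm ratio. Compounds run at 10 concentrations in duplicate, typically top 30 μM; IC50 from 4-parameter logistic fit.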

Pim-2 = molecular target: T2, Pim-2 (Homo sapiens, UniProt Q9P1W9); assay: TR-FRET assay of Pim kinase activity (phosphorylation of Bad Ser112), Pim-2; format: biochemical; details: ATP 40 μM, read-out: IC50 Pim2
T2 construct: full-length human recombinant His6-labelled Pim-1, Pim-2 or Pim-3 protein; His6; made in house
Procedure, shortened: as §1

Pim-3 = molecular target: T3, Pim-3 (Homo sapiens, UniProt Q86V86); assay: TR-FRET assay of Pim kinase activity (phosphorylation of Bad Ser112), Pim-3; format: biochemical; details: ATP 40 μM, read-out: IC50 Pim3
T3 construct: full-length human recombinant His6-labelled Pim-1, Pim-2 or Pim-3 protein; His6; made in house
Procedure, shortened: as §1

CDK1 = CDK1 (Homo sapiens, UniProt P06493); assay: Biochemical results, IC50 CDK1
PLK1 = PLK1 (Homo sapiens, UniProt P53350); assay: Biochemical results, IC50 PLK1
EOL-1 = assay: Cell viability assay (CellTiter-Blue), EOL-1; format: cell-based; details: Homo sapiens, EOL1, read-out: EC50 EOL-1 μM (eosinophilic leukaemia), EOL-1 cells, read-out: EC50 EOL-1 μM (lymphoma);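 further: EOL-1 is an acute myeloid eosinophilic leukaemia line not a lymphoma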
From the text: (§2) The representative compounds of the invention are also screened as regards their effects on cell proliferation and viability, using a variety of tumoral cell lines of human source, representative of different pathological indications. These cell lines include:
Models of Haematological Cancers: • TF-1 (acute myelogenic leukaemia; AML M6 at the time of diagnosis); • K G-1 (AML; erythroleukaemia evolving into AML); • KG-1a (AML; subclone derived from immature KG-1); • EOL-1 (AML: eosinophilic leukaemia); • PL-21 (AML; M3); • ML-2 (AML; T-NHL evolving into T-ALL evolving into AML M4); • HL-60 (AML, M3); • Kasumi-1 (AML); • GDM-1 (AML); • K-562 (CML—chronic myelogenic leukaemia; blastic crisis); • JURL-MK1 (CML; blastic crisis); • DND-41 (T-ALL—T-cell acute lymphoblastic leukaemia); • Jurkat (T-ALL); NALM-6 (B-ALL B-cell ALL); • CEM (ALL; lymphosarcoma evolving into ALL); • Jeko-1 (B-NHL—B-cell non-Hodgkin lymphoma; lymphoma with coat cells derived from a large-cell variant in leukaemic transformation); • WSU-DLCL2 (B-NHL; diffuse lymphoma with large B cells); • RL (B-NHL; undifferentiated diffuse); • OCl-Ly10 (B-NHL); • DoHH-2 (B-NHL); • RPMI-8226 (MM—multiple myelomas); • JVM-2 (B-CLL—B-cell chronic lymphocytic leukaemia); and • JVM-3 (B-CLL).
(§3) In order to measure the viability, the tumour cells are incubated in 96-well or 384-well format for 48, 72 or 96 hours, preferably 72 hours, with a compound of the invention at dilutions of a factor 3, with, in general, nine doses in total, the highest dose being equal to 10 μM or 30 μM. The cell viability is evaluated by adding CellTiter-Blue® (Promega, Madison, Wis., United States) for 4 hours and endpoint readings are taken using a SpectraMax Genmini EM plate reader (Molecular Devices, Sunnyvale, Calif., United States). The CellTiter-Blue® cell viability assay measures the ability of the cells in culture to reduce resazurin to resorufin, the intensity of the fluorescence signal being directly proportional to the number of live cells. The EC50 represents the concentration of compound that leads to a 50% reduction of the viability/proliferative expansion of the cells.

MV4-11 = assay: Cell viability assay (CellTiter-Blue), MV4-11; format: cell-based; details: Homo sapiens, read-out: EC50 MV4-11 μM (acute myeloid leukemia), MV4-11 cells, read-out: EC50 MV4-11 μM (myeloma)
Method: as §2, §3

phosphoBAD (DND-41) = assay: Level of phosphorylation of Bad by ELISA, DND-41 cell line; format: cell-based; details: Homo sapiens, DND41, DND-41 cells, 3 hours at 37° C.
Method: The activity of the molecules is evaluated on the JEKO or DND-41 cell line by measuring the level of phosphorylation of Bad and the total Bad content, via the ELISA technique.
The JEKO or DND-41 cells are resuspended at a concentration of 500 000 cells per ml. The cells are then diluted in RPMI-1640 medium containing 20% foetal calf serum. 225 μl of cells are placed in a plate. Serial dilutions of the molecules are then performed (8 points, three-fold dilution, range started at 10 mM). Each dilution point is then diluted to 1/100 in medium. Next, 25 μl of each of the concentrations are added to the cells and then incubated for 3 hours at 37° C.
100 μl of the cells are transferred into a plate treated with poly-D-Lysine. The plate is then incubated for 5-10 minutes at 37° C. and then centrifuged for 5 minutes at 1500 rpm. A volume of 100 μl of 8% fixing solution (solution of formaldehyde in PBS buffer) is added to each of the wells. After covering with a self-adhesive film and a lid, the plate is incubated for 20 minutes at room temperature and then stored at 4° C. overnight.
Next, the liquid is removed and two successive washes are performed with washing buffer. 100 μl of quenching buffer are added, followed by incubating for 15 minutes at room temperature. After washing, 100 μl of […] at room temperature. After washing, 50 μl of primary antibody diluted to 1/250 for pBAD (Cell Signaling Cat#5284) and to 1/500 for Bad (MBL Cat#591) are added to each of the plates. Each plate is incubated for 2 hours at room temperature. After two washes, 50 μl of secondary antibody (diluted to 1/16) are added to the pBAD plate (tebu-bio ref; FE-021) and 50 μl of the HRP-conjugated IgG secondary antibody (Santa Cruz Cat #SC-2004; diluted to 1/1000) are added to the Bad plate. Incubation for 1 hour at room temperature is performed. Four washes with the washing solution are performed, followed by three washes with PBS. Finally, 100 μl of the developing solution are added, followed by incubation for 10 minutes. Finally, 100 μl of the quenching solution are added, before reading at 450 nm.

Sequence of PLK1 (P53350 whole entry, species assumed): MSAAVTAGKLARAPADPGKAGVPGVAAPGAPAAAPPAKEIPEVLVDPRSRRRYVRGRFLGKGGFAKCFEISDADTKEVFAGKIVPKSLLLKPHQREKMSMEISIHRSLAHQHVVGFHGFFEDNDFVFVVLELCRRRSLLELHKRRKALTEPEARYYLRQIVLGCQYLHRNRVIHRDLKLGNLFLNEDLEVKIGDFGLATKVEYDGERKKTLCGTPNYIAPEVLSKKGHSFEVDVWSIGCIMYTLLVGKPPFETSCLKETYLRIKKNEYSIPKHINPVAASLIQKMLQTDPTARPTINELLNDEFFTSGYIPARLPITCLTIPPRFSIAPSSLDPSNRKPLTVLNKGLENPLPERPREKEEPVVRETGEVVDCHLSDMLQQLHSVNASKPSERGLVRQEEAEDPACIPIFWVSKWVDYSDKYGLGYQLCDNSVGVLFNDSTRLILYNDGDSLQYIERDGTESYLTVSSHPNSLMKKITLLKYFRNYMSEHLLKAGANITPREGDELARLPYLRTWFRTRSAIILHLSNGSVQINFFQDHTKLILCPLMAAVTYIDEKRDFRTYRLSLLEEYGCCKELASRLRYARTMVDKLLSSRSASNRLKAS
T1 sequence (P11309 whole entry): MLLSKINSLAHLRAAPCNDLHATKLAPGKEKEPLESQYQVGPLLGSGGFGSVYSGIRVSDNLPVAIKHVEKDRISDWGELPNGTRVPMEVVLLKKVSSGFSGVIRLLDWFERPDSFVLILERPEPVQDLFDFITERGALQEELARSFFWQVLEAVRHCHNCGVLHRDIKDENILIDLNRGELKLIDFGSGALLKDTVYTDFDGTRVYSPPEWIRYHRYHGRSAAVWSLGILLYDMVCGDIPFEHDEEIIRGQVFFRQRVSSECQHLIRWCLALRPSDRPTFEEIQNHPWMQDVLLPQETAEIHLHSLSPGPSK
T2 sequence (Q9P1W9 whole entry): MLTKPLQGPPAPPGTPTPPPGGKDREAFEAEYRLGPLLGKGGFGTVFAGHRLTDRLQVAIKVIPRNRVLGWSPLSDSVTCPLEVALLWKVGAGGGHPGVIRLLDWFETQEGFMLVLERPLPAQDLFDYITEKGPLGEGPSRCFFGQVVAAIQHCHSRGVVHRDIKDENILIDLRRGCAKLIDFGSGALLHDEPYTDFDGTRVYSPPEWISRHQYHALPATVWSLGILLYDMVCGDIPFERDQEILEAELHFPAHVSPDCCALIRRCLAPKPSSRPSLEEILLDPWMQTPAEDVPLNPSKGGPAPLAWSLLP
Sequence of CDK1 (P06493 whole entry, species assumed): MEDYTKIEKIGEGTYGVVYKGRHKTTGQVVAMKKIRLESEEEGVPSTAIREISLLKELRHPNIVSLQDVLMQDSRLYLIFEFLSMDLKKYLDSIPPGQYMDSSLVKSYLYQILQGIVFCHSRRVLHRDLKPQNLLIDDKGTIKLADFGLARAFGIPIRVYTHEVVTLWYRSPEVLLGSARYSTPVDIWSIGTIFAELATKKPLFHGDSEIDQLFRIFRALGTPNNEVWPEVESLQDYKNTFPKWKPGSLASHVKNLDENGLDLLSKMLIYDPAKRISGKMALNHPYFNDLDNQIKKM
Sequence of CDK1 (P14635 whole entry partner, species assumed): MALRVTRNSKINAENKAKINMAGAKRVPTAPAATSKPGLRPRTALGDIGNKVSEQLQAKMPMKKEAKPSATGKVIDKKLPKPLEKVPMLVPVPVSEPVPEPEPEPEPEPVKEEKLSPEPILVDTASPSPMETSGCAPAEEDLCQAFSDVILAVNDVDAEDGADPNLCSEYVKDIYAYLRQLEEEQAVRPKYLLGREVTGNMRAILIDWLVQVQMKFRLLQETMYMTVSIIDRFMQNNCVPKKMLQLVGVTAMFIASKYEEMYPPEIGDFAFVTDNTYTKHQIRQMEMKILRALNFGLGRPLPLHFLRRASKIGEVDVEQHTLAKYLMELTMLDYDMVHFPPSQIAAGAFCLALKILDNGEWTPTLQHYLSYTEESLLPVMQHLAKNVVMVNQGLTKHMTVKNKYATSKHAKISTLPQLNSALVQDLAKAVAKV

Compound	IC50 (Pim-1)	IC50 (Pim-2)	IC50 (Pim-3)	IC50 (CDK1)	IC50 (PLK1)	EC50 (EOL-1)	EC50 (MV4-11)	IC50 (phosphoBAD (DND-41))
CN(CC1CCCCN1C)C(=O)c1ccc(-c2c(F)cnc3[nH]c4cnc(-c5cccnc5)cc4c23)cc1 (stereo not drawn) [Example 64, 4-[3-fiuoro-6-(pyridin-3-yl)-9H-pyrrolo[2,3-b:5,4-c′]dipyridin-4-yl]-N-methyl-N-[(1-methylpiperidin-2-yl)methyl]benzamide]	< 100 nM	100 to 1000 nM	< 100 nM	1000 to 5000 nM	100 to 1000 nM	100 to 1000 nM	100 to 1000 nM	100 to 1000 nM
CC(C)N(CCNC(=O)c1ccc(-c2c(F)cnc3[nH]c4cnc(-c5cccnc5)cc4c23)cc1)C(C)C [Example 66, N-[2-(dipropan-2-ylamino)ethyl]-4-[3-fluoro-6-(pyridin-3-yl)-9H-pyrrolo[2,3-b:5,4-c′]dipyridin-4-yl]benzamide]	< 100 nM	100 to 1000 nM	< 100 nM	1000 to 5000 nM	100 to 1000 nM	< 100 nM	100 to 1000 nM	100 to 1000 nM
CC(CN(C)C)NC(=O)c1ccc(-c2c(F)cnc3[nH]c4cnc(-c5cccnc5)cc4c23)cc1 (stereo not drawn) [Example 68, N-[1-(dimethylamino)propan-2-yl]-4-[3-fluoro-6-(pyridin-3-yl)-9H-pyrrolo[2,3-b:5,4c′]dipyridin-4-yl]benzamide]	< 100 nM	< 100 nM	< 100 nM	1000 to 5000 nM	1000 to 5000 nM	< 100 nM	100 to 1000 nM	< 100 nM
CN(C)CCCCNC(=O)c1ccc(-c2c(F)cnc3[nH]c4cnc(-c5cccnc5)cc4c23)cc1 [Example 75, N-[4-(dimethylamino)butyl]-4-[3-fluoro-6-(pyridin-3-yl)-9H-pyrrolo[2,3-b:5,4-c′]dipyridin-4-yl]benzamide]	< 100 nM	100 to 1000 nM	< 100 nM	100 to 1000 nM	1000 to 5000 nM	100 to 1000 nM	100 to 1000 nM	1000 to 5000 nM
CN1CCC(NC(=O)c2ccc(-c3c(F)cnc4[nH]c5cnc(-c6cnn(C)c6Cl)cc5c34)cc2)CC1 [Example 107, 4-[6-(5-chloro-1-methyl-1H-pyrazol-4-yl)-3-fluoro-9H-pyrrolo[2,3-b:5,4-c′]dipyridin-4-yl]-N-(1-methylpiperidin-4-yl)benzamide]	< 100 nM	< 100 nM	< 100 nM	1000 to 5000 nM	> 5000 nM	100 to 1000 nM	100 to 1000 nM	
COCCOc1cnc2[nH]c3cnc(-c4cccnc4)cc3c2c1-c1ccc(C(=O)NCCN(C)C)cc1 [Example 120, N-[2-(dimethylamino)ethyl]-4-[3-(2-methoxyethoxy)-6-(pyridin-3-yl)-9H-pyrrolo[2,3-b:5,4-c′]dipyridin-4-yl]benzamide]	< 100 nM	< 100 nM	< 100 nM			< 100 nM	< 100 nM	100 to 1000 nM
